According to patent US20220267309A1, “DIMERIC OR POLYMERIC FORM OF MUTANT IDH INHIBITOR” (EPITAS BIOSCIENCES (SHANGHAI) CO., LTD., priority 2019, published 2022):
pIC50: −log10 of the molar value. Where two headings read alike, the source gives them in different places.

Legend:
Assay type in all cases: cell-based
IDH1/R132C = target: T1, IDH1/R132C (Homo sapiens, UniProt O75874, R132C); experiment: Inhibitory activity against mutant IDH1/R132C at the cellular level (extracellular 2-HG, HT-1080 cells); conditions: for IC50: read-out: IC50 (nM), inhibitory activity against IDH1/R132C
T1 construct: the fibrosarcoma cell HT-1080 containing the IDH1/R132C mutation; endogenous in cells; host or cells: HT-1080 fibrosarcoma cells
T1 sequence (O75874 2-414 R132C limits assumed): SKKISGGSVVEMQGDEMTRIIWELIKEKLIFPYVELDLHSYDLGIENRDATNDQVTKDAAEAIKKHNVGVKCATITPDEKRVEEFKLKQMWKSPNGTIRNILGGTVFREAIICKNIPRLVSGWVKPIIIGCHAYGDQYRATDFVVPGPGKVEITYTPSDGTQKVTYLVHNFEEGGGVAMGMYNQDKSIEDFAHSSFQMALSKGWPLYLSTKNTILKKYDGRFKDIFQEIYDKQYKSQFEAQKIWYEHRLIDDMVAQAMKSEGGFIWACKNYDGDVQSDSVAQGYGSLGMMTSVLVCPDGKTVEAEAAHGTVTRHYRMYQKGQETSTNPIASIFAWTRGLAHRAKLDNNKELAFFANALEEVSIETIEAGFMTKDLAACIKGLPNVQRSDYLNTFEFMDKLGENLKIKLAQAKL
Experimental: (§1) 2-Hydroxyglutarate dehydrogenase (2HGDH) can reduce NAD+ to NADH in the presence of 2-HG. The later can be quantitatively detected by diaphorase and its substrate Resazurin.
(§2) The cells were digested with trypsin and seeded in a 96-well plate at a density of 1×10^4 with a medium of 200 μL and cultured in a 37° C. incubator overnight. The next day, the test compound was added to a final concentration of 0.1% for DMSO. […] The protein and other components in the culture medium that may interfere with the results were filtered, and the follow-up method was used to detect the content of 2-HG.
(§3) Extracellular 2-HG Detecting System:
(§4) (1) 50 μL reaction system: reaction buffer (50 mM Tris pH7.5, 100 mM NaCl, 20 mM MgCl2, 0.05% BSA), in which the final concentration of NAD+ was 40 μM, the final concentration of 2HGDH was 20 nM, and the test sample was added to 5 μL of culture medium; the reaction solution was mixed and centrifuged, and the reaction was carried out for 1 hour at 25° C. in the dark;
(§5) Preparation of standard curve of 2-HG: the stock solution of 2-HG was diluted to 20 μM with reaction buffer, and a 2-fold gradient diluting was performed for a total of 6 points. Afterwards the above-mentioned 2-HG was measured according to the extracellular 2-HG detecting system, and a standard curve was calculated and drawn.

IDH2/R140Q = target: T2, IDH2/R140Q (Homo sapiens, UniProt P48735, R140Q); experiment: Inhibitory activity against mutant IDH2/R140Q at the cellular level (extracellular 2-HG, U87MG cells); conditions: glioma cell U87MG overexpressing IDH2/R140Q; for IC50: 2-HG in culture medium
T2 construct: expressed in transfected cells; host or cells: U87MG glioma cells
T2 sequence (P48735 40-452 R140Q): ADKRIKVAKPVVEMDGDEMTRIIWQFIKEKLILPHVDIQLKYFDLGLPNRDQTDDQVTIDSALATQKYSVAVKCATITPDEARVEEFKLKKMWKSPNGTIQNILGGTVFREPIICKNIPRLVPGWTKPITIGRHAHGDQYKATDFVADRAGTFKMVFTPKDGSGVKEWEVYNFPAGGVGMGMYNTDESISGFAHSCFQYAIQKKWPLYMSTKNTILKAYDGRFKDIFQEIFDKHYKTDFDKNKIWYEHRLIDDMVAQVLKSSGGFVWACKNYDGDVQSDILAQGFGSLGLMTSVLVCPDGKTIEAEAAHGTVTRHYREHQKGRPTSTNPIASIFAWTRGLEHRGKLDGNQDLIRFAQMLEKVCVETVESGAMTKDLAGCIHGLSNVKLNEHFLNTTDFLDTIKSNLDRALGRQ
Experimental: as §1, §2, §3, §4
(2) 25 μL color development system: color development buffer (50 mM Tris pH7.5, 100 mM NaCl, 20 mM MgCl2, 0.05% BSA), in which the final concentration of diaphorase was 36 μg/mL, and the final concentration of resazurin sodium was 3 μM; 25 μL of the above-mentioned color developing solution was added to the 50 μL reaction system in (1), mixed and centrifuged, and the fluorescence value was measured immediately under Ex544/Em590.
as §5
Calculation of Extracellular 2-HG Content:
the fluorescence value obtained in the extracellular 2-HG detecting system was calculated using the 2-HG standard curve to calculate the content of 2-HG in the culture medium, and DMSO was used as a negative control to calculate the compound's inhibition against IDH1/R132H mutation producing the 2-HG activity.
The experimental steps were the same as in Example 7, except that the glioma cell U87MG overexpressing the IDH1/R132H mutation was replaced with the glioma cell U87MG overexpressing the IDH2/R140Q mutation.

IDH1/R132H = target: T3, IDH1/R132H (Homo sapiens, UniProt O75874, R132H); experiment: Inhibitory activity against mutant IDH1/R132H at the cellular level (extracellular 2-HG, U87MG cells); conditions: for IC50: 24 hours, read-out: IC50 (nM), inhibitory activity against IDH1/R132H
T3 construct: expressed in transfected cells; host or cells: U87MG glioma cells
T3 sequence (O75874 whole entry R132H): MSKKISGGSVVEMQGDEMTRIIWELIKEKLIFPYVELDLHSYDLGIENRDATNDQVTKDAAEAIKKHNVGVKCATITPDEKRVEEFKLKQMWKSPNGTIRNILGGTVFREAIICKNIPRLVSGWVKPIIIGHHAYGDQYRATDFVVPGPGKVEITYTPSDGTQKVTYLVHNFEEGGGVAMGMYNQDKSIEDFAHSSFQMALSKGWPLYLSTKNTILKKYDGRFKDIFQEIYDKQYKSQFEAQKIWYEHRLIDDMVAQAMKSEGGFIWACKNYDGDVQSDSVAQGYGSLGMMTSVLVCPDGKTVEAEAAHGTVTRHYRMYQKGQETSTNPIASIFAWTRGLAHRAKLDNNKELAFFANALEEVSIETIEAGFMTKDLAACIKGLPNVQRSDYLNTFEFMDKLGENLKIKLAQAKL
Experimental: as §1, §2, §3, §4, §5

[1] = fibrosarcoma cell HT-1080 containing IDH1/R132C, 2-HG in culture medium
[2] = fibrosarcoma cell HT-1080 containing IDH1/R132C, 2-HG in culture medium, read-out: IC50, inhibitory activity against IDH1/R132C
[3] = glioma cell U87MG overexpressing IDH1/R132H, 2-HG in culture medium, read-out: IC50, inhibitory activity against IDH1/R132H
[4] = glioma cell U87MG overexpressing IDH1/R132H, 2-HG in culture medium

| SMILES | pIC50 (IDH1/R132C) | IC50 (IDH2/R140Q) [µM] | pIC50 (IDH1/R132H) | IC50 (IDH1/R132C; [1]) [nM] | pIC50 (IDH1/R132C; [2]) | Inhibition of IDH2/R140Q (IDH2/R140Q) | pIC50 (IDH1/R132H; [3]) | IC50 (IDH1/R132H; [4]) [nM] |
| --- | --- | --- | --- | --- | --- | --- | --- | --- |
| CC(C)[C@H]1COC(=O)N1c1ccnc(N[C@@H](C)c2ccccn2)n1 [Ref1, reference compound] | 5.00 to 6.30 | > 20 | 5.00 to 6.30 |  |  |  |  |  |
| CC(C)[C@H]1COC(=O)N1c1ccnc(N[C@@H](C)c2ccc(OCCOCCOCCOc3ccc([C@H](C)Nc4nccc(N5C(=O)OC[C@@H]5C(C)C)n4)nc3)cn2)n1 [Compound 1, (4S,4′S)-3,3′-(2,2′-(((1S,1′S)-(5,5′-(((ethane-1,2-diylbis(oxy))bis(ethane-2,1-diyl))bis(oxy))bis(pyridine-5,2-diyl))bis(ethane-1,1-diyl))bis(azanediyl))bis(pyrimidine-4,2-diyl))bis(4-isopropyloxazolidin-2-one)] |  | > 20 |  | < 5 | ≥ 8.30 | did not inhibit | ≥ 8.30 | < 5 |
| N#Cc1ccnc(N2C(=O)CC[C@H]2C(=O)N(c2cncc(F)c2)[C@H](C(=O)NC2CC(F)(F)C2)c2ccccc2Cl)c1 [AG-120, reference compound] |  | > 20 |  |  |  |  |  |  |
| CC(C)[C@H]1COC(=O)N1c1ccnc(N[C@@H](C)c2ccc(OCCOCCOCCOCCOc3ccc([C@H](C)Nc4nccc(N5C(=O)OC[C@@H]5C(C)C)n4)nc3)cn2)n1 [Compound 2, (4S,4′S)-3,3′-(2,2′-(((1S,1′S)-(5,5′-((((oxybis(ethane-2,1-diyl))bis(oxy))bis(ethane-2,1-diyl))bis(oxy))bis(pyridine-5,2-diyl))bis(ethane-1,1-diyl))bis(azanediyl))bis(pyrimidine-4,2-diyl))bis(4-isopropyloxazolidin-2-one)] |  | > 20 |  | < 5 | ≥ 8.30 | did not inhibit | ≥ 8.30 | < 5 |
| CC(C)[C@H]1COC(=O)N1c1ccnc(N[C@@H](C)c2ccccc2)n1 [IDH125, reference compound] |  | > 20 |  |  |  |  |  |  |
